The values that follow come from EP0363353B1, “FUSED BENZAZEPINES” (SCHERING CORPORATION, priority 1987, dated 1989).

One assay has as its target T1, dopamine D-1 receptor (Rattus norvegicus, UniProt P18901).
T1 construct: Striatal tissue was excised, pooled, and homogenized; from tissue; host or cells: rat striatum (Sprague-Dawley), washed membrane pellet
Kind of assay: Competitive inhibition assay, displacement of 3H-SCH 23390. Format: binding. From the text:
(§1) A methodology for characterization of D-1 and D-2 receptor binding and an interpretation of the data are described by Billard et al., Life Sciences 35, 1885 (1984) in which the binding of the benzazepine (R)-(+)-8-chioro-2,3,4,5-tetrahydro-3-methyi-5-phenyi-1H-3-benzazepin-7-oi hemimaleate (SCH 23390) to the dopamine D-1 receptor is characterized. A selectivity for D-1 receptor binding as compared to D-2 receptor binding is believed to confer the therapeutic advantage of avoiding troublesome and potentially irreversible neurological side effects associated with D-2 receptor occupancy. […]
(§2) Polypropylene incubation tubes received 100 µl of the individual test compounds at various concentrations dissolved or suspended in 0.05 M Tris, pH 7.4 containing 4 mg/ml methylcellulose, 100 µl of a solution of^3H-SCH 23390 in Tris buffer (final reaction mixture concentration =0.3 nM) or 100 µl of a solution of ^3H-spiperone in Tris buffer (final concentration = 0.2 nM) and 800 µl of tissue suspension (ca. 3 mg/assay). […] The filters were-transferred to scintillation vials, equilibated with 10 ml of scintillant (Scintosol, Isolab, Inc.) for 16 hours at 25°C and the radioactivity determined in a liquid scintillation counter. […]
On the technique in general: In a radioligand displacement assay an active substance lowers the binding of a labelled ligand.

In a further assay the target is T2, D-2 receptor (Rattus norvegicus, UniProt P61169).
T2 construct: Striatal tissue was excised, pooled, and homogenized; from tissue; host or cells: rat striatum (Sprague-Dawley), washed membrane pellet
In words: Competitive inhibition assay, displacement of 3H-spiperone. Format: binding. As to conditions: 3H-spiperone 0.2 nM; rat striatal tissue homogenate; 37°C for 15 minutes.
Excerpt: as §1, §2

T1 sequence (P18901 whole entry): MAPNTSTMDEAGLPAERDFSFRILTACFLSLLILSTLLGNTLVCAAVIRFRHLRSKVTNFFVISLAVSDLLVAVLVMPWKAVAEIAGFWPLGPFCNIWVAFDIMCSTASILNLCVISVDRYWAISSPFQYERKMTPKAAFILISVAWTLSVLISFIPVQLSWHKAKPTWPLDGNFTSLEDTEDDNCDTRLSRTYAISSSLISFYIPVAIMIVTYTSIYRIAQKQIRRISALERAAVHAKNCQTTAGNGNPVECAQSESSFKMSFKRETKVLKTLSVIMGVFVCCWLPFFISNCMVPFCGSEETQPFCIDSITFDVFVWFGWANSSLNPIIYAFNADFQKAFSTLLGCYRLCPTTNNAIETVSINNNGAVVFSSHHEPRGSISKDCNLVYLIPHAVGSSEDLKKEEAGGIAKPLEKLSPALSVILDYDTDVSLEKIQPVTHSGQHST
T2 sequence (P61169 whole entry): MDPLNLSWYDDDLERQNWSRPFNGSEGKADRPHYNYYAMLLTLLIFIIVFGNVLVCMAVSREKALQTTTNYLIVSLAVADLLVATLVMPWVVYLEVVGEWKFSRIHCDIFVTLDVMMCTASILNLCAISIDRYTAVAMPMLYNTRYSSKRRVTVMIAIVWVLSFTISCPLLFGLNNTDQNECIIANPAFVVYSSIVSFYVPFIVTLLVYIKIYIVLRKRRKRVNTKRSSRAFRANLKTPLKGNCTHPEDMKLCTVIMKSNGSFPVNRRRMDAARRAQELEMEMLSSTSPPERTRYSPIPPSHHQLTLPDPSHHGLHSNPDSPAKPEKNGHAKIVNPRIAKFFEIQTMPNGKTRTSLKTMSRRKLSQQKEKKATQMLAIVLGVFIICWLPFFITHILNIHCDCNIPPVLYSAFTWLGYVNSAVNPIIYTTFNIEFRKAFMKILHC

Consider `Oc1cc2c(cc1Cl)CCN[C@H]1Cc3ccccc3[C@H]21` (racemic), for which the results for the Ki at dopamine D-1 receptor and at D-2 receptor were 7 nM and 1580 nM, respectively.

For the compound `CN1CCc2cc(Cl)c(O)cc2[C@H]2c3ccccc3C[C@@H]21` (racemic) [Trans-6-methyl-5,6,7,7a,8,12b-hexahydro-2-hydroxy-3-chloro-benz[d]indeno-[2,1-b]azepine], the Ki (usually a dissociation constant, usually derived from enzyme kinetics or from competition with a known ligand) at dopamine D-1 receptor worked out at 7 nM; at D-2 receptor, 12000 nM.
